Experimental data taken from patent publication US7981460B2, “Substituted benzyl ester derivative and use thereof” (Ajinomoto Co., Inc., priority 2006, dated 2011).
Values joined by “and” are separate entries in the source; they are usually repeats but may differ in a detail not shown here. Equal values may be shown once.

Assays:
[1] = tested on: auricle of hairless mouse (HR-1, female); test: External blood circulation enhancing action: vasodilatory effect (red spots) on auricle of hairless mouse; format: in vivo; set-up: key to Vasodilatory effect for hairless mouse (red spots, visual): ◯: clear red spots can be confirmed; Δ: weak red spots can be confirmed; x: no development of red spots; conditions: for Vasodilatory effect for hairless mouse (red spots, visual): applied to right ear; for Vasodilating effect: 5 wt % solution, solvents as in Tables 2 and 3
Protocol: The compound of each Example and capsaicin analog were compared for vasodilatory effect using auricle of hairless mouse. [Test method] A sample was applied to the right ear of hairless mouse (HR-1, female), and a control was applied to the left ear. Presence or absence of red spots development was visually evaluated, and evaluated according to the following indices. ◯: clear red spots can be confirmed Δ: weak red spots can be confirmed x: no development of red spots The samples were dissolved in liquid paraffin or ethanol. samples: Control: liquid paraffin or ethanol

[2] = Stability on contact with silica gel, yield (recovery rate) of PTLC purification as index; format: physicochemical
Protocol: Using vanillyl alcohol (1.70 g, 11.0 mmol) instead of piperonyl alcohol, and n-decanoic acid (1.72 g, 10 mmol) instead of 8-methylnonanoic acid in Example 1, a reaction similar to Example 1 was performed.
Using the yield (recovery rate) of purification by silica gel chromatography (PTLC) as an index, the stability of each Example compound was confirmed.

For `COc1cc(CNC(=O)CCCC/C=C/C(C)C)ccc1O` [capsaicin, reference compound], which “Vasodilatory effect for hairless mouse (red spots, visual)” value (“Vasodilatory effect for hairless mouse” below) ([1]; 1 wt % in liquid paraffin) is on record?
The value was “∘”.

And the “Vasodilatory effect for hairless mouse” value ([1]; 5 wt % in ethanol)?
Its value is “∘”.

What about the “Vasodilatory effect for hairless mouse” value ([1]; 5 wt % in liquid paraffin) of the same compound?
The value was “∘”.

Which “Vasodilatory effect for hairless mouse” value ([1]; 1 wt % in liquid paraffin) does the source give for `COc1cc(COC(=O)CCCC/C=C/C(C)C)ccc1O` [capsiate, 4-hydroxy-3-methoxybenzyl (E)-8-methyl-6-nonenoate, reference compound] here?
The value was “Δ”.

And the “Vasodilatory effect for hairless mouse” value ([1]; 5 wt % in ethanol)?
The value was “∘”.

What about the “Vasodilatory effect for hairless mouse” value ([1]; 5 wt % in liquid paraffin) of the same compound?
Its value is “∘”.

For `CC(C)CCCCCCC(=O)OCc1ccc2c(c1)OCO2` [compound A, Piperonyl 8-methylnonanoate], which “Vasodilatory effect for hairless mouse” value ([1]; 5 wt % in liquid paraffin) is on record?
The value was “Δ”.

What about the “Vasodilating effect” value [1] of the same compound?
Its value is “weak vasodilating effect”.

And the “Stability on purification by PTLC (contact with silica gel), in words” value (shortened to “Stability on purification by PTLC”) [2]?
Its value is “stabler than vanillyl decanoate even upon contact with silica gel”.

And the “Yield (recovery rate) after purification by PTLC, index of stability” value (from here on “Yield (recovery rate) … index of stability”) [2]?
The value was 84.3%.

With `CC(C)CCCCCC(=O)OCc1ccc2c(c1)OCO2` [compound A-1, Piperonyl 7-methyloctanoate] as the compound, how does the “Vasodilatory effect for hairless mouse” value ([1]; 5 wt % in ethanol) read?
Its value is “x”.

What about the “Vasodilatory effect for hairless mouse” value ([1]; 5 wt % in liquid paraffin) of the same compound?
The value was “x”.

What about the “Vasodilating effect” value [1] of the same compound?
The value was “did not show a vasodilating effect”.

Which results are given for `CC(C)CCCCC(=O)OCc1ccc2c(c1)OCO2` [compound A-2, Piperonyl 6-methylheptanoate]?
Vasodilatory effect for hairless mouse (red spots, visual) ([1]; 5 wt % in ethanol): x; Vasodilatory effect for hairless mouse (red spots, visual) ([1]; 5 wt % in liquid paraffin): x; Vasodilating effect [1]: did not show a vasodilating effect

Which “Vasodilatory effect for hairless mouse” value ([1]; 5 wt % in liquid paraffin) does the source give for `COc1ccc(COC(=O)CCCCCCC(C)C)cc1O` [compound B, Isovanillyl 8-methylnonanoate] here?
Its value is “∘”.

What about the “Vasodilating effect” value [1] of the same compound?
The value was “strong vasodilating effect”.

What about the “Stability on purification by PTLC” value [2] of the same compound?
Its value is “not decomposed even after purification by PTLC”.

What about the “Yield (recovery rate) … index of stability” value [2] of the same compound?
Its value is 81.0%.

What does the source list for `COc1ccc(COC(=O)CCCCCC(C)C)cc1O` [compound B-1, Isovanillyl 7-Methyloctanoate]?
Vasodilatory effect for hairless mouse (red spots, visual) ([1]; 5 wt % in liquid paraffin): Δ; Vasodilating effect [1]: weak vasodilating effect

For `CCC(C)CCCCCC(=O)OCc1ccc(OC)c(O)c1` (stereo not shown) [compound B-2, Isovanillyl 7-methyl Nonanoate], which “Vasodilatory effect in words” value ([1]; 5 wt % in ethanol) is on record?
Its value is “vasodilatory effect was observed”.

What about the “Vasodilatory effect for hairless mouse” value ([1]; 5 wt % in ethanol) of the same compound?
The value was “∘”.

And the “Vasodilatory effect in words” value ([1]; 5 wt % in ethanol, listed as Compound B-2)?
The value was “showed a vasodilating effect”.

And the “Vasodilatory effect, note in words (onset, duration)” value ([1]; 5 wt % in liquid paraffin)?
The value was “did not show a vasodilating effect”.

And the “Vasodilatory effect for hairless mouse” value ([1]; 5 wt % in liquid paraffin)?
Its value is “x”.

For `COc1ccc(COC(=O)CCCCCCC(C)C)cc1` [compound C, 4-methoxybenzyl 8-methylnonanoate], which “Vasodilatory effect for hairless mouse” value ([1]; 5 wt % in liquid paraffin) is on record?
Its value is “∘”.

What about the “Vasodilating effect” value [1] of the same compound?
The value was “strong vasodilating effect”.

And the “Stability on purification by PTLC” value [2]?
The value was “not decomposed even after purification by PTLC”.

And the “Yield (recovery rate) … index of stability” value [2]?
Its value is 90.2%.

Which “Vasodilatory effect for hairless mouse” value ([1]; 5 wt % in liquid paraffin) does the source give for `COc1ccc(COC(=O)CCCCCC(C)C)cc1` [compound C-1, 4-methoxybenzyl 7-methyloctanoate] here?
The value was “Δ”.

What about the “Vasodilating effect” value [1] of the same compound?
Its value is “weak vasodilating effect”.

With `CCC(C)CCCCC(=O)OCc1ccc(OC)cc1` (stereo not shown) [compound C-2, 4-methoxybenzyl 6-methyloctanoate] as the compound, how does the “Vasodilatory effect for hairless mouse” value ([1]; 5 wt % in ethanol) read?
The value was “x”.

And the “Vasodilatory effect for hairless mouse” value ([1]; 5 wt % in liquid paraffin)?
Its value is “x”.

And the “Vasodilating effect” value [1]?
The value was “did not show a vasodilating effect”.

For `COc1ccc(COC(=O)CCCCCCC(C)C)cc1OC` [compound D, Veratryl 8-methylnonanoate], which “Vasodilatory effect for hairless mouse” value ([1]; 5 wt % in liquid paraffin) is on record?
Its value is “x”.

What about the “Vasodilating effect” value [1] of the same compound?
The value was “did not show a vasodilating effect”.

And the “Stability on purification by PTLC” value [2]?
The value was “not decomposed even after purification by PTLC”.

What about the “Yield (recovery rate) … index of stability” value [2] of the same compound?
The value was 89.1%.

Which “Vasodilatory effect for hairless mouse” value ([1]; 5 wt % in liquid paraffin) does the source give for `CC(C)CCCCCCC(=O)OCc1ccc(O)cc1` [compound F, 4-hydroxybenzyl 8-methylnonanoate] here?
The value was “Δ”.

What about the “Vasodilating effect” value [1] of the same compound?
Its value is “weak vasodilating effect”.

What does the source list for `COc1cc(COC(=O)CCCCCCC(C)C)ccc1OC(C)=O` [compound G, 4-acetoxy-3-methoxybenzyl 8-methylnonanoate]?
Vasodilatory effect for hairless mouse (red spots, visual) ([1]; 5 wt % in liquid paraffin): ∘; Vasodilating effect [1]: strong vasodilating effect; Stability on purification by PTLC (contact with silica gel), in words [2]: not decomposed even after purification by PTLC; Yield (recovery rate) after purification by PTLC, index of stability [2]: 82.9% and 85.7%

For `COc1cc(COC(=O)CCCC/C=C/C(C)C)ccc1OC(C)=O` [compound G-1, 4-acetoxy-3-methoxybenzyl (E)-8-methyl-6-nonenoate], which “Vasodilatory effect for hairless mouse” value ([1]; 5 wt % in liquid paraffin) is on record?
The value was “∘”.

What about the “Vasodilating effect” value [1] of the same compound?
The value was “strong vasodilating effect”.

Which “Vasodilatory effect for hairless mouse” value ([1]; 5 wt % in liquid paraffin) does the source give for `CCOc1cc(COC(=O)CCCCCCC(C)C)ccc1O` [compound H, 3-ethoxy-4-hydroxybenzyl 8-methylnonanoate] here?
Its value is “∘”.

What about the “Vasodilating effect” value [1] of the same compound?
The value was “clear vasodilating effect, though the expression of the effect was slow”.

For `COc1cc(COC(=O)CCCCCCC(C)C)ccc1O` [dihydrocapsiate, 4-hydroxy-3-methoxybenzyl 8-methylnonanoate, reference compound], which “Vasodilatory effect for hairless mouse” value ([1]; 1 wt % in liquid paraffin) is on record?
Its value is “Δ”.

What about the “Vasodilatory effect for hairless mouse” value ([1]; 5 wt % in liquid paraffin) of the same compound?
The value was “∘”.

For `COc1cc(COC(=O)CCCCCC(C)C)ccc1O` [nordihydrocapsiate, 4-hydroxy-3-methoxybenzyl 7-methyl-octanoate, reference compound], which “Vasodilatory effect for hairless mouse” value ([1]; 1 wt % in liquid paraffin) is on record?
Its value is “Δ”.

What about the “Vasodilatory effect for hairless mouse” value ([1]; 5 wt % in liquid paraffin) of the same compound?
The value was “∘”.

Which “Vasodilatory effect for hairless mouse” value ([1]; 5 wt % in ethanol) does the source give for `COc1cc(CO)ccc1O` [vanillyl alcohol, reference compound] here?
The value was “x”.

And the “Vasodilatory effect for hairless mouse” value ([1]; 5 wt % in liquid paraffin)?
The value was “x”.

What does the source list for `CCCCCCCCCC(=O)OCc1ccc(O)c(OC)c1` [vanillyl decanoate, reference compound]?
Stability on purification by PTLC (contact with silica gel), in words [2]: decomposed by the contact with silica gel; Yield (recovery rate) after purification by PTLC, index of stability [2]: 43.1%
